In patent publication US11116799B2, “Generation of uniform hepatocytes from human embryonic stem cells by inhibiting TGF-beta and methods of maintaining hepatic cultures” (Wisconsin Alumni Research Foundation, priority 2016, dated 2021):
Values joined by “and” are separate entries in the source; they are usually repeats but may differ in a detail not shown here. Equal values may be shown once. “Also recorded” adds a separate entry of the source.

Tests used:
[1] = system: primary mouse hepatocytes; test: RNA-Seq gene expression in primary mouse hepatocytes treated with kinase inhibitors; conditions: 10 μM, 72 hours
Text: The next step was to determine if the PI3/Akt and MAPK pathways are involved in maintenance of hepatocyte maturation. We investigated whether small molecule inhibition of these pathways would mimic let-7's action and reduce the loss of mature function of hepatocytes in culture after removal from their microenvironment. […] Then, expression of the top ten important metabolic enzymes (CYPs, UGTs and transporters) by RNA-Seq with uncultured fresh hepatocytes and control vehicle hepatocytes treated for 72 hours was compared.
Hepatocytes from 6 black mice livers were isolated by perfusion following standard protocol and cultured on Matrigel coated plates in hepatocyte growth medium (Promocell). Whole developing livers from 6 black mice were used for RNA isolation with Trizol for let-7c measurements.
(§1) Total RNA (including microRNA) from all cells, which were not mentioned otherwise, were isolated using RNAeasy Plus Kit […] following manufacturers protocol. RNA-Seq was performed by LM-Seq (Illumina). MicroRNAs were sequenced using Illumina's small RNA sequencing kit. Expression of let-7 and U6 snoRNA were measured by quantitative PCR using ABI's kit. Let-7c expression levels were normalized by U6 snoRNA expression (RQ or relative quantity values, error bars representing standard error, RQ min and RQ max).
Multiple batches of cryopreserved induction qualified human hepatocytes (each batch being from one donor) were purchased from Life Technologies and cultured on Matrigel coated plates in hepatocyte growth medium (PromoCell). For dedifferentiation studies, hepatocytes from batches Hu4260, Hu8135, Hu4279 and Hu8137 were used after mixing equal number of live cells. For small molecule treatments, batch Hu4260 was used. Mouse hepatocytes were isolated from Black 6 mice livers by perfusion following standard protocol and cultured on Matrigel coated plates in hepatocyte growth medium (Promocell).
(§2) Total RNA were isolated using RNAeasy Plus Kit (Qiagen) following manufacturers protocol and qualified with the Life Technologies Qubit fluorometer and Agilent Bioanalyzer. […] Final indexed cDNA libraries were pooled and sequenced on an Illumina HiSeq 2500. Base-calling and demultiplexing were performed using Casava (v1.8.2). Sequences were filtered and trimmed to remove low quality reads, adapters, and other sequencing artifacts. The remaining reads were aligned to a reference database comprising only RefSeq-validated transcripts (i.e., assigned an “NM_” accession). Mouse samples were aligned to the mm10 assembly, and human samples were aligned to the hg19 assembly. […] Reads with more than 200 alignments were excluded from further analysis. […] All RNA-seq results have been deposited at NCBI's GEO under Accession No. GSE94353.
The inventors next investigated whether the MAPK and PI3/Akt pathways contributed to the dedifferentiation of hepatocytes. […] Rapamycin was included as a control, which is an inhibitor of the mTOR pathway, a serine/threonine kinase involved in cell signaling not identified as a key pathway in our analysis.

[2] = system: HepG2 cells
Method: Both types of cells were treated with a vehicle or small molecule for 72 hours and genes were quantified using RNA-Seq.
as §1, §2
(§3) To test whether the upregulation of metabolic genes at the mRNA level translated into functional metabolic improvement, acetaminophen (APAP) metabolism was assessed by LC/MS/MS.

[3] = system: primary human hepatocytes (PHHs); test: RNA-Seq gene expression in MAPK inhibitor treated primary human hepatocytes; type: cell-based
Method: […]. […] […].
For small RNA-Seq profiling, hepatocytes from Hu8082 were used; for de-differentiation time course and let-7c transduction, hepatocytes from Hu4260, Hu8135, Hu4279 and Hu8137 were used. For both experiments, cells from all 4 donors were mixed in equal numbers after assessment of viability. For small molecule treatments, batch Hu4260 was used.
RNA-Seq was performed by LM-Seq (Illumina).
For small molecule treatments, batch Hu4260 was used.
. To ascertain that the increase in metabolic enzymes took place through specific MAPK inhibition, PHHs were treated with a second MAPK inhibitor, PD0325901, for 72 hours, followed by RNA-Seq analysis (Supplementary Table 4). […].

[4] = system: CYP2C9; conditions: HepG2, treated 72 hours
Method: (§4) CYP2C9 and 3A4 metabolism were measured using CYP450 Glo assay (Promega). In short, substrates were added to the media and incubated for 72 hours and the amount of metabolites generated were measured by adding the detection reagent and quantifying the luminescence in a Tecan® plate reader. Background was measured by incubating the substrates for 72 hours in the same media without cells. Cell counting for proliferation assay was carried out by dye exclusion in an automated cell counter (ThermoFisher).
CYP2C9 and 3A4 metabolism were measured using CYP450 Glo assay (Promega). Substrates were added to the media and incubated for 72 hours and the amount of metabolite generated were measured by adding the detection reagent and quantifying the luminescence in a Tecan plate reader. Background was measured by incubating the substrates for 72 hours in the same media without cells.

[5] = system: HepG2 cells; test: HepG2 viability / cell growth (cell counting by dye exclusion); type: cell-based, human; conditions: HepG2, 72 hours, compared to vehicle control
Method: as §4

[6] = system: HepG2 cells; conditions: HepG2 treated 72 hours, 10 uM APAP for 1 hour
Text: Samples for LC/MS/MS analysis were processed by solid-phase extraction, and calibrant curves (7 points) for all compounds were generated by spiking standards (Sigma) in E6 media and processed in parallel with samples. An internal standard of deuterated naproxen was included for all analytes. Samples were run on a 0.2×100 mm Cortecs C18 column (Waters Corporation, Milford Mass.) using a Waters Acquity UPLC system coupled to an AB/Sciex Q-Trap 5500 hybrid triple quadrupole instrument (Framingham Mass.). Analytes were detected using multiple-reaction-monitoring with three transitions for each compound being monitored. Each sample was analyzed in triplicate with blanks between each sample analysis. Quantitation was based on area under the curve of the analyte relative to the internal standard and was modeled with a quadratic fit with 1/× weighting using the MultiQuant software (Sciex, Framingham Mass.). […] Average calculated concentrations for each analyte are reported. […] Background was determined by measuring metabolites in media incubated with acetaminophen only for 1 hour and any samples below background were considered nil.
as §3

[7] = system: ALB-GFP/tdTomato-AFP marker cell line; conditions: marker line differentiated with TGFB and NOTCH inhibition in E6, then treated 72 hours
Text: We next differentiated the ALB-GFP/tdTomato-AFP marker cell line to hepatocytes with TGFB and NOTCH inhibition in defined E6 medium.

[8] = primary human hepatocytes, treated 72 hours

N#CC(=C(/N)Sc1ccccc1N)/C(C#N)=C(\N)Sc1ccccc1N [U0126] was tested, and the ABCC2 gene expression [1] was 415.86 transcripts per million, the CYP1A2 gene expression [1] was 1271.98 transcripts per million and the CYP2C9 gene expression [1] was 2676.68 transcripts per million. The CYP2E1 gene expression [1] was 217.96 transcripts per million, the CYP3A11 gene expression [1] was 632.32 transcripts per million and the CYP3A25 gene expression [1] was 112.18 transcripts per million. For the same compound, the UGT1A6A gene expression [1] was 232.80 transcripts per million, the UGT1A9 gene expression [1] was 184.63 transcripts per million and the UGT1A10 gene expression [1] was 2.44 transcripts per million. The UGT2B5 gene expression [1] was 995.27 transcripts per million, the “downregulation of fetal gene AFP compared with untreated control” value ([2]; HepG2, 72 hours) was “over 3 orders of magnitude” and the AFP gene expression ([2]; HepG2, treated 72 hours) was 4.74 transcripts per million. It also gave an ALB gene expression ([2]; HepG2, treated 72 hours) of 2083.6 transcripts per million, a CD81 gene expression ([2]; HepG2, treated 72 hours) of 634.68 transcripts per million and a CYP1A2 gene expression ([2]; HepG2, treated 72 hours) of 0.68 transcripts per million. It also gave a CYP1B1 gene expression ([2]; HepG2, treated 72 hours) of 3.07 transcripts per million, a CYP2C9 gene expression ([2]; HepG2, treated 72 hours) of 33.45 transcripts per million and a CYP2D6 gene expression ([2]; HepG2, treated 72 hours) of 4.05 transcripts per million. The CYP2E1 gene expression ([2]; HepG2, treated 72 hours) was 14.61 transcripts per million, the CYP3A4 gene expression ([2]; HepG2, treated 72 hours) was 13.37 transcripts per million and the SLC10A1 gene expression ([2]; HepG2, treated 72 hours) was 10.57 transcripts per million. For the same compound, the SLCO1B1 gene expression ([2]; HepG2, treated 72 hours) was 120.17 transcripts per million, the SLCO1B3 gene expression ([2]; HepG2, treated 72 hours) was 18.83 transcripts per million and the UGT1A1 gene expression ([2]; HepG2, treated 72 hours) was 16.61 transcripts per million. The UGT1A6 gene expression ([2]; HepG2, treated 72 hours) was 835.05 transcripts per million, the UGT1A9 gene expression ([2]; HepG2, treated 72 hours) was 99.71 transcripts per million and the “expression of hepatic nuclear receptors (CAR, FXR, LXR, PPAR, PXR, RAR), change >3-fold” value ([2]; HepG2 cells) was “did not significantly change”. For the same compound, the “expression of hepatic nuclear receptors (CAR, FXR, LXR, PPAR, PXR, RAR), change >3-fold” value ([3]; PHHs) was “did not significantly change”, the AFP gene expression [3, 8] was 5.79 transcripts per million and the ALB gene expression [3, 8] was 1360.25 transcripts per million. The CD81 gene expression [3, 8] was 417.56 transcripts per million, the CYP1A2 gene expression [3, 8] was 68.21 transcripts per million and the CYP1B1 gene expression [3, 8] was 30.96 transcripts per million. For the same compound, the CYP2C9 gene expression [3, 8] was 77.04 transcripts per million, the CYP2D6 gene expression [3, 8] was 1.81 transcripts per million and the CYP2E1 gene expression [3, 8] was 17.69 transcripts per million. It also gave a CYP3A4 gene expression [3, 8] of 43.64 transcripts per million, an SLC10A1 gene expression [3, 8] of 0.00 transcripts per million and an SLCO1B1 gene expression [3, 8] of 153.15 transcripts per million. For the same compound, the SLCO1B3 gene expression [3, 8] was 14.65 transcripts per million, the UGT1A1 gene expression [3, 8] was 47.57 transcripts per million and the UGT1A6 gene expression [3, 8] was 671.53 transcripts per million. For the same compound, the UGT1A9 gene expression [3, 8] was 81.41 transcripts per million, the “CYP2C9 activity (luminescent metabolite formation), increase over vehicle control” value [4] was > 10 fold and 10 fold and the “HepG2 viability / cell growth” value [5] was “significant inhibition of cell growth; also recorded: increased cell death and growth arrest”. For the same compound, the “formation of APAP-glucuronide” value [6] was “induced the formation”, the “formation of APAP-glutathione” value [6] was “induced the formation” and the “formation of APAP-sulphate” value [6] was “increased formation”. For the same compound, the “rate of formation of all APAP metabolites versus PHHs” value [6] was “comparable rate to mature adult PHHs” and the “cells expressing both ALB and AFP” value [7] was 100%.
